The values below come from patent US8735384B2, “Amino heteroaryl compounds as beta-secretase modulators and methods of use” (Amgen Inc., priority 2010, dated 2014).

Molecules are shown by their SMILES.

Assay [1] concerns the target BACE1 (Homo sapiens, UniProt P56817). Kind of assay: In vitro enzymatic BACE FRET assay. Type of assay: biochemical. The note with it: beta secretase enzyme 0.2 nM, FRET substrate 50 nM, pH 4.2; read-out: BACE1 FRET assay (IC50 class). The procedure:
In Vitro Enzymatic BACE FRET (Fluorescence Resonance Energy Transfer) Assay (Enzyme Assay Data in Table 1)
The assay buffer used in this screen is 0.05 M acetate, pH 4.2, 10% DMSO final, 100 uM genapol (which is a nonionic detergent, below its Critical Micelle Concentration). The beta secretase enzyme (0.2 nM) is pre-incubated for one hour with inhibitors, typically in about 1 uL of DMSO according to a serial dilution, are added thereto. The assay is effectively started by the addition of FRET substrate (50 nM) and the combination is incubated for one hour. The FRET assay is terminated with by addition of Tris buffer, which raises the pH to neutrality, and the fluorescence is determined. The FRET substrate is a peptide with commercially available fluorophore and quencher, on opposite sides of the BACE cleavage site. Proteolytic cleavage of the FRET substrate releases quenching of fluorescence (excitation […] and […]).
Of the compounds tested, the in-vitro BACE FRET enzyme data for each of Examples 1-220, where available at the time of filing this application, is provided in Table 1.

For assay [2], the system named is Aβ40 in conditioned medium of cells stably expressing Amyloid Precursor Protein (APP). Kind of assay: In vitro BACE cell-based assay (HEK cell assay), Aβ40 sandwich ELISA. The note with it: Homo sapiens, HEK293, 24 h, inhibition of Aβ40, 24 h incubation, read-out: HEK cell assay (IC50 class). The procedure:
In Vitro BACE Cell-Based Assay:
The cell-based assay measures inhibition or reduction of Aβ40 in conditioned medium of test compound treated cells expressing amyloid precursor protein.
Cells stably expressing Amyloid Precursor Protein (APP) were plated at a density of 40K cells/well in 96 well plates (Costar). The cells were cultivated for 24 hours at 37° C. and 5% CO2 in DMEM supplemented with 10% FBS. The test compounds were then added to cells in 10-point dose response concentrations with the starting concentration being either 100 μM or 10 μM. The compounds were diluted from stock solutions in DMSO and the final DMSO concentration of the test compounds on cells was 0.1%. After 24 h of incubation with the test compounds the supernatant conditioned media was collected and the Aβ 40 levels were determined using a sandwich ELISA. The IC50 of the compound was calculated from the percent of control or percent inhibition of Aβ 40 as a function of the concentration of the test compound.
The sandwich ELISA to detect Aβ 40 was performed in 96 well microtiter plates, which were pre-treated with goat anti-rabbit IgG (Pierce). The capture and detecting antibody pair that were used to detect Aβ 40 from cell supernatants were affinity purified pAb40 (Biosource) and biotinylated 6E10 (Signet Labs Inc.), respectively. The optimal concentration for the pAb40 antibody was 3 μg/ml in Superblock/TBS (Pierce) that was supplemented with 0.05% Tween 20 (Sigma). Optimal concentration for the detection antibody 6E10-biotinylated was 0.5 μg/ml in Superblock/TBS (Pierce) that had been supplemented with 2% normal goat serum and 2% normal mouse serum.
Cellular supernatants were incubated with the capture antibody for 3 h at 4° C., followed by 3 wash steps in TBS-tween (0.05%). The detecting antibody incubation was for 2 h at 4° C., again followed by the wash steps as described previously. The final readout of the ELISA is Time-Resolved Fluorescence (counts per minute) using Delfia reagents Streptavidin-Europium and Enhancement solutions (Perkin Elmer) and the Victor 2 multilabel counter (Perkin Elmer).
In general terms: In an ELISA, binding on a coated surface is turned into a signal by an enzyme label.

By IC50 is commonly meant the concentration needed to halve the response being measured.

Chain of BACE1 (P56817 46-501, species assumed): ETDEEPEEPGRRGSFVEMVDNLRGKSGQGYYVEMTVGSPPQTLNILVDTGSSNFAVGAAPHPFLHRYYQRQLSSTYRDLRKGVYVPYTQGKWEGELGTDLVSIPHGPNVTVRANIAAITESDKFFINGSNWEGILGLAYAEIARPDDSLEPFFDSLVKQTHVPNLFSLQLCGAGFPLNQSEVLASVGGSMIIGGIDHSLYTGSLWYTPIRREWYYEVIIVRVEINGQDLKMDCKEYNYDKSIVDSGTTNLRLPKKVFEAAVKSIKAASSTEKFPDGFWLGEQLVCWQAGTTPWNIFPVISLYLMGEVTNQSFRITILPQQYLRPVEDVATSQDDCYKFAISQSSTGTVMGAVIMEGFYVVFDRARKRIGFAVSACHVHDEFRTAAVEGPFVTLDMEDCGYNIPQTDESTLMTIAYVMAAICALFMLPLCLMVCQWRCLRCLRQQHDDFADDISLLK

With `COCC1CCN(C(=O)c2cccc(C)c2-c2ccc3nc(N)c(N4CCOCC4)cc3c2)CC1` [Example 73, (2-(2-amino-3-morpholinoquinolin-6-yl)-3-methylphenyl)(4-(methoxymethyl)piperidin-1-yl)methanone], the half-maximal inhibitory concentration (IC50) was in the range of 100 to 500 nM in assay [1] and 1010 to 5000 nM in assay [2].
`Nc1nc2ccc(-c3cccc(F)c3C(=O)N3CCCC3)cc2cc1N1CCOCC1` [Example 142, (2-(2-amino-3-morpholinoquinolin-6-yl)-6-fluorophenyl)(pyrrolidin-1-yl)methanone]: the IC50 in assay [1] was 1010 to 5000 nM; in assay [2], above 5000 nM.
In the case of `CO/N=C(/c1ccccc1)c1cccc(C)c1-c1ccc2nc(N)c(N3CCOCC3)cc2c1` [Example 191, (Z)-(2-(2-amino-3-morpholinoquinolin-6-yl)-3-methylphenyl)(phenyl)methanone O-methyl oxime], the IC50 in assay [1] is below 100 nM; in assay [2] it was 1010 to 5000 nM.
Taken in the same sequence, the figures for `Cc1cccc(C(=O)N(C)CCC(C)C)c1-c1ccc2nc(N)c(N3CCOCC3)cc2c1` [Example 119, 2-(2-amino-3-morpholinoquinolin-6-yl)-N-isopentyl-N,3-dimethylbenzamide] were 100 to 500 nM and 1010 to 5000 nM.
Regarding `Cc1cccc(C(=O)N2CCCC(C)C2)c1-c1ccc2nc(N)c(N3CCOCC3)cc2c1` (centres unmarked) [Example 115, (2-(2-amino-3-morpholinoquinolin-6-yl)-3-methylphenyl)(3-methylpiperidin-1-yl)methanone], the IC50 in assay [1] is below 100 nM; in assay [2], 501 to 1000 nM.
Taken in the same sequence, the figures for `CC(C)(C)CCc1cccc(C(=O)N2CC[C@H](F)C2)c1-c1ccc2nc(N)c(N3CCOCC3)cc2c1` [Example 166, (S)-(2-(2-amino-3-morpholinoquinolin-6-yl)-3-(3,3-dimethylbutyl)phenyl)(3-fluoropyrrolidin-1-yl)methanone] were below 100 nM and below 100 nM.
Take `Cc1cccnc1C(=O)c1cccc(C)c1-c1ccc2nc(N)c(N3CCOCC3)cc2c1` [Example 189, (2-(2-amino-3-morpholinoquinolin-6-yl)-3-methylphenyl)(3-methylpyridin-2-yl)methanone]: the results for the IC50 in assay [1] and in assay [2] were 100 to 500 nM and 501 to 1000 nM, respectively.
For `Cc1cccc(C(=O)N2CCCC2)c1-c1ccc2nc(N)c(C3CCOC(C)(C)C3)cc2c1` (centres unmarked) [Example 205, (2-(2-amino-3-(2,2-dimethyltetrahydro-2H-pyran-4-yl)quinolin-6-yl)-3-methylphenyl)(pyrrolidin-1-yl)methanone] the same measures were below 100 nM and below 100 nM.
For `COC[C@H]1CCCN1C(=O)c1cccc(C)c1-c1ccc2nc(N)c(N3CCOCC3)cc2c1` [Example 70, (R)-(2-(2-amino-3-morpholinoquinolin-6-yl)-3-methylphenyl)(2-(methoxymethyl)pyrrolidin-1-yl)methanone], the IC50 in assay [1] was in the range of 100 to 500 nM; in assay [2] it was 1010 to 5000 nM.
For `Cc1cccc(Cc2ccccc2)c1-c1ccc2nc(N)c(N3CCOCC3)cc2c1` [Example 18, 6-(2-benzyl-6-methylphenyl)-3-morpholinoquinolin-2-amine], the 50% inhibitory concentration (IC50) in assay [1] was below 100 nM; in assay [2] it was 1010 to 5000 nM.
For `Cc1cccc(C(=O)N2CCCC2)c1-c1ccc2nc(N)c(N3CCOCC3)cc2c1` [Example 1, (2-(2-amino-3-morpholinoquinolin-6-yl)-3-methylphenyl)(pyrrolidin-1-yl)methanone] the same measures were below 100 nM and 100 to 500 nM.
Consider `COC1CCCN(C(=O)c2cccc(C)c2-c2ccc3nc(N)c(N4CCOCC4)cc3c2)C1` (centres unmarked) [Example 82, (2-(2-amino-3-morpholinoquinolin-6-yl)-3-methylphenyl)(3-methoxypiperidin-1-yl)methanone], for which the figures for the IC50 in assay [1] and in assay [2] were 100 to 500 nM and 1010 to 5000 nM, respectively.
For `Cc1cccc(C(=O)c2nccs2)c1-c1ccc2nc(N)c(N3CCOCC3)cc2c1` [Example 158, (2-(2-amino-3-morpholinoquinolin-6-yl)-3-methylphenyl)(thiazol-2-yl)methanone] the same measures were 100 to 500 nM and 1010 to 5000 nM.
As to `Cc1cccc(C(=O)N2CC=CC2)c1-c1ccc2nc(N)c(N3CCOCC3)cc2c1` [Example 90, (2-(2-amino-3-morpholinoquinolin-6-yl)-3-methylphenyl)(2,5-dihydro-1H-pyrrol-1-yl)methanone], the IC50 in assay [1] was below 100 nM; in assay [2] it was 501 to 1000 nM.
Taken in the same sequence, the figures for `Cc1ccc(C(=O)N2CCCC2)c(-c2ccc3nc(N)c(N4CCOCC4)cc3c2)c1` [Example 150, (2-(2-amino-3-morpholinoquinolin-6-yl)-4-methylphenyl)(pyrrolidin-1-yl)methanone] were below 100 nM and 100 to 500 nM.
For the molecule `Cc1cccc(C(=O)N2CCCC2)c1-c1ccc2nc(N)c(N3CCOC(C)C3C)cc2c1` (centres unmarked) [Example 209, (2-(2-amino-3-(2,3-dimethylmorpholino)quinolin-6-yl)-3-methylphenyl)(pyrrolidin-1-yl)methanone], the half-inhibitory concentration (IC50) in assay [1] was below 100 nM; in assay [2], 501 to 1000 nM.
Take `Cc1cccc(C(=O)N2CCOCC2)c1-c1ccc2nc(N)c(N3CCOCC3)cc2c1` [Example 59, (2-(2-amino-3-morpholinoquinolin-6-yl)-3-methylphenyl)(morpholino)methanone]: the figures for the concentration for half-maximal inhibition (IC50) in assay [1] and in assay [2] were 100 to 500 nM and 1010 to 5000 nM, respectively.
Taken in the same sequence, the figures for `CC(C)(C)CC(=O)c1cccc(C(=O)N2CCCC2)c1-c1ccc2nc(N)c(N3CCOCC3)cc2c1` [Example 46, 1-(2-(2-amino-3-morpholinoquinolin-6-yl)-3-(pyrrolidine-1-carbonyl)phenyl)-3,3-dimethylbutan-1-one] were below 100 nM and 100 to 500 nM.
For `CC(C)(C)CCc1cccc(C(=O)N2CCOCC2)c1-c1ccc2nc(N)c(N3CCOCC3)cc2c1` [Example 163, (2-(2-amino-3-morpholinoquinolin-6-yl)-3-(3,3-dimethylbutyl)phenyl)(morpholino)methanone], the IC50 in assay [1] and in assay [2] was below 100 nM in each case.
With `Nc1nc2ccc(-c3c(C#CC4CCCCC4)cccc3C(=O)N3CCCC3)cc2cc1N1CCOCC1` [Example 167, (2-(2-amino-3-morpholinoquinolin-6-yl)-3-(cyclohexylethynyl)phenyl)(pyrrolidin-1-yl)methanone], the IC50 in assay [1] and in assay [2] was below 100 nM each time.
For `Cc1cccc(C(=O)N2CCCC2)c1-c1ccc2nc(N)c(C3CCCOCC3)cc2c1` (centres unmarked) [Example 206, (2-(2-amino-3-(oxepan-4-yl)quinolin-6-yl)-3-methylphenyl)(pyrrolidin-1-yl)methanone], the IC50 in assay [1] was below 100 nM; in assay [2], 100 to 500 nM.
Taken in the same sequence, the figures for `CC(C)(C)C#Cc1ccccc1-c1ccc2nc(N)c(N3CCOCC3)cc2c1` [Example 160, 6-(2-(3,3-dimethylbut-1-ynyl)phenyl)-3-morpholinoquinolin-2-amine] were 501 to 1000 nM and above 5000 nM.
Regarding `Cc1coc(-c2cccc(C)c2-c2ccc3nc(N)c(N4CCOCC4)cc3c2)n1` [Example 31, 6-(2-methyl-6-(4-methyloxazol-2-yl)phenyl)-3-morpholinoquinolin-2-amine], the IC50 is 100 to 500 nM in assay [1] and above 5000 nM in assay [2].
For the molecule `COc1ccccc1C(=O)c1cccc(C)c1-c1ccc2nc(N)c(N3CCOCC3)cc2c1` [Example 7, (2-(2-amino-3-morpholinoquinolin-6-yl)-3-methylphenyl)(2-methoxyphenyl)methanone], the IC50 was below 100 nM in assay [1] and 100 to 500 nM in assay [2].
Turning to `Cc1cccc(C(=O)N2CCCC2)c1-c1ccc2nc(N)c(N3CCOC[C@@H]3C)cc2c1` [Example 210, (S)-(2-(2-amino-3-(3-methylmorpholino)quinolin-6-yl)-3-methylphenyl)(pyrrolidin-1-yl)methanone], the IC50 in assay [1] lay within 501 to 1000 nM; in assay [2] it was 1010 to 5000 nM.
